Source: patent US12377104B1, “Methods for treating a fatty liver disease” (Madrigal Pharmaceuticals, Inc., priority 2024, dated 2025)
“And” between values parts separate entries of the source, which are not always exact repeats. Equal values may be shown once.

Tested on: adults with biopsy-confirmed NASH
Assay: MAESTRO-NASH: lipids, lipoproteins and lipid particles
Type: in vivo, human
Conditions: 80 mg; for ApoB, Least Squares Mean % CFB / ApoB, Least Squares Mean % CFB Difference from PBO / LDL-C, Least Squares Mean % CFB / LDL-C, Least Squares Mean % CFB Difference from PBO: baseline LDL-C >100 mg/dL; for Lp(a), LS mean % CFB / Lp(a), LS mean % CFB difference from PBO: baseline Lp(a) >10 nmol/L; for Triglycerides, LS mean % CFB / Triglycerides, LS mean % CFB difference from PBO: baseline triglycerides >150 mg/dL
Description: Within the study, we provided analyses based on an analysis of covariance (ANCOVA) model after having performed single imputation for LDL-C as described in the statistical analysis plan (SAP). The ANCOVA model estimated least-squares means using treatment and baseline LDL-C as covariate.
To this end, the Week 24 LDL-C assessment and assessments at any visit in which LDL-C is measured (Weeks 4, 12, 16, 20, 24, 28, 32, 36, 40, 44, 48, and 52) that has been impacted by kit shortage at the prior visit (unavailability of […] (IP) during the 4 weeks preceding the visit due to the COVID-19 pandemic as indicated on the electronic case report form (eCRF)), were considered missing and were imputed from an unaffected assessment at surrounding visits or using data from subjects unaffected by this intercurrent event as described in Section 11.2 of the SAP. In summary, single imputation utilizing adjacent and valid […] measurements were imputed.
For missing lipid data that are still missing after the single imputation approach described, those missing lipid data were imputed using the non-missing lipid values (including the singly imputed data) based on missing at random (MAR)-based (MI). When applying the MAR-based […], data were imputed separately by randomized treatment group and baseline stratification factors.

CC(C)c1cc(Oc2c(Cl)cc(-n3nc(C#N)c(=O)[nH]c3=O)cc2Cl)n[nH]c1=O [Resmetirom, 2-(3,5-dichloro-4-((5-isopropyl-6-oxo-1,6-dihydropyridazin-3-yl)oxy)phenyl)-3,5-dioxo-2,3,4,5-tetrahydro-1,2,4-triazine-6-carbonitrile]
Apolipoprotein B level, difference from placebo (wk 24): −17.2 percentage points | Apolipoprotein B level, least-squares mean percent change from baseline (wk 24): −16.8 ± 1.3% | LDL cholesterol level, difference from placebo (wk 24): −13.7 percentage points | LDL cholesterol level, least-squares mean percent change from baseline (wk 24): −13.6% and −13.6 ± 1.7% | Lipoprotein(a) level, difference from placebo (wk 24): −29.5 percentage points | Triglyceride level, difference from placebo (wk 24): −20.1 percentage points | Lipoprotein(a) level, least-squares mean percent change from baseline (wk 24, baseline lipoprotein(a) >10 nmol per liter): −30.4 ± 3.8% | Triglyceride level, least-squares mean percent change from baseline (wk 24, baseline triglyceride >150 mg per deciliter): −22.7 ± 4.0% | ApoB, LS mean % CFB (Week 24): −16.8% | ApoB, LS mean % CFB difference from PBO (Week 24): −17.2% | ApoCIII, Least Squares Mean % CFB (Week 24): −10.6% | ApoCIII, Least Squares Mean % CFB Difference from PBO (Week 24): −18.7% | HDL-C, Least Squares Mean % CFB (Week 24): 2.7% | HDL-C, Least Squares Mean % CFB Difference from PBO (Week 24): 0.98% | LDL-C, LS mean % CFB (Week 24): −13.6% | LDL-C, LS mean % CFB difference from PBO (Week 24): −13.7% | Non-HDL-C, Least Squares Mean % CFB (Week 24): −15.2% | Non-HDL-C, Least Squares Mean % CFB Difference from PBO (Week 24): −15.4% | ApoB, Least Squares Mean % CFB (Week 24): −21.9% | ApoB, Least Squares Mean % CFB Difference from PBO (Week 24): −18.1% | LDL-C, Least Squares Mean % CFB (Week 24): −21.3% | LDL-C, Least Squares Mean % CFB Difference from PBO (Week 24): −15.4% | ApoCIII, Least Squares Mean % CFB (Week 52): −10.0% | ApoCIII, Least Squares Mean % CFB Difference from PBO (Week 52): −19.8% | HDL particle size, Least Squares Mean % CFB (Week 52): 0.90% | HDL particle size, Least Squares Mean % CFB Difference from PBO (Week 52): 0.60% | HDL particles, Least Squares Mean % CFB (Week 52): 5.2% | HDL particles, Least Squares Mean % CFB Difference from PBO (Week 52): 3.6% | HDL-C, Least Squares Mean % CFB (Week 52): 4.7% | HDL-C, Least Squares Mean % CFB Difference from PBO (Week 52): 2.1% | LDL particle size, Least Squares Mean % CFB (Week 52): −0.32% | LDL particle size, Least Squares Mean % CFB Difference from PBO (Week 52): −0.36% | LDL particles, Least Squares Mean % CFB (Week 52): −16.8% | LDL particles, Least Squares Mean % CFB Difference from PBO (Week 52): −16.1% | Large HDL particles, Least Squares Mean % CFB (Week 52): 12.3% | Large HDL particles, Least Squares Mean % CFB Difference from PBO (Week 52): 0.06% | Large LDL particles, Least Squares Mean % CFB (Week 52): 47.8% | Large LDL particles, Least Squares Mean % CFB Difference from PBO (Week 52): −38.6% | Large VLDL and chylomicron particles, Least Squares Mean % CFB (Week 52): −5.7% | Large VLDL and chylomicron particles, Least Squares Mean % CFB Difference from PBO (Week 52): −16.8% | Medium HDL particles, Least Squares Mean % CFB (Week 52): 88.2% | Medium HDL particles, Least Squares Mean % CFB Difference from PBO (Week 52): 23.1% | Medium VLDL particles, Least Squares Mean % CFB (Week 52): −18.7% | Medium VLDL particles, Least Squares Mean % CFB Difference from PBO (Week 52): −134.5% | Non-HDL-C, Least Squares Mean % CFB (Week 52): −15.7% | Non-HDL-C, Least Squares Mean % CFB Difference from PBO (Week 52): −15.3% | Small LDL particles, Least Squares Mean % CFB (Week 52): −3.3% | Small LDL particles, Least Squares Mean % CFB Difference from PBO (Week 52): −25.0% | Small VLDL particles, Least Squares Mean % CFB (Week 52): 62.9% | Small VLDL particles, Least Squares Mean % CFB Difference from PBO (Week 52): -21.3% | VLDL and chylomicron particles, Least Squares Mean % CFB (Week 52): −11.2% | VLDL and chylomicron particles, Least Squares Mean % CFB Difference from PBO (Week 52): −19.4% | VLDL and chylomicron triglycerides, Least Squares Mean % CFB (Week 52): −14.7% | VLDL and chylomicron triglycerides, Least Squares Mean % CFB Difference from PBO (Week 52): −19.6% | VLDL particle size, Least Squares Mean % CFB (Week 52): 1.9% | VLDL particle size, Least Squares Mean % CFB Difference from PBO (Week 52): −0.05% | ApoB, Least Squares Mean % CFB (Week 52): −25.0% | ApoB, Least Squares Mean % CFB Difference from PBO (Week 52): −18.5% | LDL-C, Least Squares Mean % CFB (Week 52): −25.3% | LDL-C, Least Squares Mean % CFB Difference from PBO (Week 52): −15.7% | Lp(a), LS mean % CFB (week 24): 30.4% | Lp(a), LS mean % CFB difference from PBO (week 24): -29.5% | Triglycerides, LS mean % CFB (week 24): -22.7% | Triglycerides, LS mean % CFB difference from PBO (week 24): −20.1% | ApoB, LS mean % CFB (week 52): -16.2% | ApoB, LS mean % CFB difference from PBO (week 52): −16.8% | LDL-C, LS mean % CFB (week 52): -13.7% | LDL-C, LS mean % CFB difference from PBO (week 52): −13.3% | Lp(a), LS mean % CFB (week 52): −34.0% | Lp(a), LS mean % CFB difference from PBO (week 52): −29.5% | Triglycerides, LS mean % CFB (week 52): −22.5% | Triglycerides, LS mean % CFB difference from PBO (week 52): −19.0%
